Test results: the supplement of paper PMC10733146

How the values were obtained:
Test in all cases: viability relative to DMSO control (fraction); higher = less drug effect (more viable cells)
Conditions in all cases: 48 h
[1] = test system: primary AML patient cells (S019)
How it was run: (§1)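 Cells were incubated for 48 h at 37 °C and 5% CO2 in RPMI-1640 with penicillin/streptomycin, L-glutamine and human serum, at 4 × 10^4 cells per well in 384-well plates with compounds pre-plated at five concentrations, one well each. These were primary mononuclear tumour cells, fresh or cryopreserved, Ficoll-isolated from blood or bone marrow or obtained from processed lymph node. Viability values are CellTiter-Glo luminescence relative to the median of 16 inner DMSO wells.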

[2] = test system: primary AML patient cells (S017)
How it was run: as §1

[3] = test system: primary AML patient cells (S021)
How it was run: as §1

[4] = test system: primary DLBCL patient cells (S049)
How it was run: as §1

[5] = test system: primary AML patient cells (S085)
How it was run: as §1

[6] = test system: primary BL patient cells (S005)
How it was run: as §1

[7] = test system: primary AML patient cells (S081)
How it was run: as §1

[8] = test system: primary AML patient cells (S027)
How it was run: as §1

[9] = test system: primary DLBCL patient cells (S076)
How it was run: as §1

[10] = test system: primary T-NHL patient cells (S058)
How it was run: as §1

[11] = test system: primary ALL patient cells (S088)
How it was run: as §1

[12] = test system: primary CLL patient cells (S043)
How it was run: as §1

[13] = test system: primary AML patient cells (S025)
How it was run: as §1

[14] = test system: primary AML patient cells (S002)
How it was run: as §1

[15] = test system: primary AML patient cells (S011)
How it was run: as §1

[16] = test system: primary B-PLL patient cells (S016)
How it was run: as §1

[17] = test system: primary AML patient cells (S060)
How it was run: as §1

[18] = test system: primary AML patient cells (S071)
How it was run: as §1

[19] = test system: primary AML patient cells (S007)
How it was run: as §1

## Cc1nc(Nc2ncc(C(=O)Nc3c(C)cccc3Cl)s2)cc(N2CCN(CCO)CC2)n1 [Dasatinib]
[1]; 0.0016 µM
  viability: 1.14
[1]; 0.008 µM
  viability: 1.14
[1]; 0.04 µM
  viability: 1.07
[1]; 0.2 µM
  viability: 0.986
[1]; 1 µM
  viability: 1.02
[2]; 0.0016 µM
  viability: 0.997
[2]; 0.008 µM
  viability: 0.859
[2]; 0.04 µM
  viability: 0.654
[2]; 0.2 µM
  viability: 0.689
[2]; 1 µM
  viability: 0.711
[3]; 0.0016 µM
  viability: 0.964
[3]; 0.008 µM
  viability: 0.799
[3]; 0.04 µM
  viability: 0.73
[3]; 0.2 µM
  viability: 0.615
[3]; 1 µM
  viability: 0.638
[4]; 0.0016 µM
  viability: 0.952
[4]; 0.008 µM
  viability: 0.83
[4]; 0.04 µM
  viability: 0.814
[4]; 0.2 µM
  viability: 0.497
[4]; 1 µM
  viability: 0.33
[5]; 0.0016 µM
  viability: 0.943
[5]; 0.008 µM
  viability: 0.736
[5]; 0.04 µM
  viability: 0.691
[5]; 0.2 µM
  viability: 0.605
[5]; 1 µM
  viability: 0.91
[6]; 0.0016 µM
  viability: 0.917
[6]; 0.008 µM
  viability: 0.807
[6]; 0.04 µM
  viability: 0.788
[6]; 0.2 µM
  viability: 0.7
[6]; 1 µM
  viability: 0.697
[7]; 0.0016 µM
  viability: 1.14
[7]; 0.008 µM
  viability: 1.01
[7]; 0.04 µM
  viability: 0.693
[7]; 0.2 µM
  viability: 0.54
[7]; 1 µM
  viability: 0.764
[8]; 0.0016 µM
  viability: 1.06
[9]; 0.0016 µM
  viability: 0.835
[9]; 0.008 µM
  viability: 0.672
[9]; 0.04 µM
  viability: 0.628
[9]; 0.2 µM
  viability: 0.532
[9]; 1 µM
  viability: 0.535
[10]; 0.0016 µM
  viability: 0.962
[10]; 0.008 µM
  viability: 0.836
[10]; 0.04 µM
  viability: 0.861
[10]; 0.2 µM
  viability: 0.834
[10]; 1 µM
  viability: 0.855
[11]; 0.0016 µM
  viability: 0.899
[11]; 0.008 µM
  viability: 0.709
[11]; 0.04 µM
  viability: 0.62
[11]; 0.2 µM
  viability: 0.545
[11]; 1 µM
  viability: 0.631
[12]; 0.0016 µM
  viability: 1.31
[12]; 0.008 µM
  viability: 1.2
[12]; 0.04 µM
  viability: 0.67
[12]; 0.2 µM
  viability: 0.595
[12]; 1 µM
  viability: 0.547
[13]; 0.0016 µM
  viability: 0.961
[13]; 0.008 µM
  viability: 1.02
[13]; 0.04 µM
  viability: 0.978
[13]; 0.2 µM
  viability: 0.965
[13]; 1 µM
  viability: 1.14
[14]; 0.0016 µM
  viability: 0.979
[14]; 0.008 µM
  viability: 1.04
[14]; 0.04 µM
  viability: 0.799
[14]; 0.2 µM
  viability: 0.764
[14]; 1 µM
  viability: 1.04
[15]; 0.0016 µM
  viability: 1.06
[15]; 0.008 µM
  viability: 0.884
[15]; 0.04 µM
  viability: 0.909
[15]; 0.2 µM
  viability: 0.882
[15]; 1 µM
  viability: 0.936
[16]; 0.0016 µM
  viability: 0.693
[16]; 0.008 µM
  viability: 0.45
[16]; 0.04 µM
  viability: 0.397
[16]; 0.2 µM
  viability: 0.368
[16]; 1 µM
  viability: 0.445
[17]; 0.0016 µM
  viability: 1.02
[17]; 0.008 µM
  viability: 1.03
[17]; 0.04 µM
  viability: 0.901
[17]; 0.2 µM
  viability: 0.891
[17]; 1 µM
  viability: 0.638
[18]; 0.0016 µM
  viability: 1.04
[18]; 0.008 µM
  viability: 1.05
[18]; 0.04 µM
  viability: 1
[18]; 0.2 µM
  viability: 0.948
[18]; 1 µM
  viability: 0.951
[19]; 0.0016 µM
  viability: 0.89
[19]; 0.008 µM
  viability: 0.964
[19]; 0.04 µM
  viability: 0.917
[19]; 0.2 µM
  viability: 0.837
[19]; 1 µM
  viability: 0.755

## CCc1cnn2c(NCc3ccc[n+]([O-])c3)cc(N3CCCC[C@H]3CCO)nc12 [Dinaciclib]
[1]; 0.0016 µM
  viability: 1.31
[1]; 0.008 µM
  viability: 0.54
[1]; 0.04 µM
  viability: 0.114
[1]; 0.2 µM
  viability: 0.116
[1]; 1 µM
  viability: 0.126
[2]; 0.0016 µM
  viability: 0.994
[2]; 0.008 µM
  viability: 0.401
[2]; 0.04 µM
  viability: 0.0509
[2]; 0.2 µM
  viability: 0.0474
[2]; 1 µM
  viability: 0.0503
[3]; 0.0016 µM
  viability: 1.38
[3]; 0.008 µM
  viability: 0.424
[3]; 0.04 µM
  viability: 0.161
[3]; 0.2 µM
  viability: 0.151
[3]; 1 µM
  viability: 0.139
[5]; 0.0016 µM
  viability: 1
[5]; 0.008 µM
  viability: 0.11
[5]; 0.04 µM
  viability: 0.0634
[5]; 0.2 µM
  viability: 0.0552
[5]; 1 µM
  viability: 0.0573
[6]; 0.0016 µM
  viability: 0.866
[6]; 0.008 µM
  viability: 0.792
[6]; 0.04 µM
  viability: 0.848
[6]; 0.2 µM
  viability: 0.867
[6]; 1 µM
  viability: 1.01
[7]; 0.0016 µM
  viability: 1.02
[7]; 0.008 µM
  viability: 0.0549
[7]; 0.04 µM
  viability: 0.0232
[7]; 0.2 µM
  viability: 0.0223
[7]; 1 µM
  viability: 0.0211
[8]; 0.0016 µM
  viability: 1.05
[8]; 0.008 µM
  viability: 0.12
[8]; 0.04 µM
  viability: 0.0422
[8]; 0.2 µM
  viability: 0.0393
[8]; 1 µM
  viability: 0.0395
[11]; 0.0016 µM
  viability: 0.644
[11]; 0.008 µM
  viability: 0.0942
[11]; 0.04 µM
  viability: 0.0343
[11]; 0.2 µM
  viability: 0.0308
[11]; 1 µM
  viability: 0.0318
[12]; 0.0016 µM
  viability: 1.08
[12]; 0.008 µM
  viability: 0.0742
[12]; 0.04 µM
  viability: 0.0345
[12]; 0.2 µM
  viability: 0.0401
[12]; 1 µM
  viability: 0.0459
[13]; 0.0016 µM
  viability: 0.976
[13]; 0.008 µM
  viability: 0.286
[13]; 0.04 µM
  viability: 0.063
[13]; 0.2 µM
  viability: 0.0602
[13]; 1 µM
  viability: 0.0589
[14]; 0.0016 µM
  viability: 1.17
[14]; 0.008 µM
  viability: 0.272
[14]; 0.04 µM
  viability: 0.277
[14]; 0.2 µM
  viability: 0.265
[14]; 1 µM
  viability: 0.274
[15]; 0.0016 µM
  viability: 1.23
[15]; 0.008 µM
  viability: 0.155
[15]; 0.04 µM
  viability: 0.0402
[15]; 0.2 µM
  viability: 0.0329
[15]; 1 µM
  viability: 0.0263
[16]; 0.0016 µM
  viability: 1.07
[16]; 0.008 µM
  viability: 0.047
[16]; 0.04 µM
  viability: 0.0409
[16]; 0.2 µM
  viability: 0.0324
[16]; 1 µM
  viability: 0.0324
[17]; 0.0016 µM
  viability: 1.12
[17]; 0.008 µM
  viability: 0.0838
[17]; 0.04 µM
  viability: 0.0221
[17]; 0.2 µM
  viability: 0.0219
[17]; 1 µM
  viability: 0.0206
[18]; 0.0016 µM
  viability: 0.966
[18]; 0.008 µM
  viability: 0.105
[18]; 0.04 µM
  viability: 0.107
[18]; 0.2 µM
  viability: 0.0985
[18]; 1 µM
  viability: 0.0952
[19]; 0.0016 µM
  viability: 0.637
[19]; 0.008 µM
  viability: 0.175
[19]; 0.04 µM
  viability: 0.118
[19]; 0.2 µM
  viability: 0.12
[19]; 1 µM
  viability: 0.141
